Measured values from ChEMBL document CHEMBL4673336, “Design, synthesis and stepwise optimization of nitrile-based inhibitors of cathepsins B and L” (Bioorg Med Chem, 2021).

Target: T1, Cathepsin B (Homo sapiens, UniProt P07858)
Assay: Inhibition of human cathepsin B using Z-Phe-Arg-AMC fluorogenic peptide as substrate preincubated for 2 mins followed by substrate addition and measured for 5 mins by fluorescence assay
Conditions: not given

| Compound | Ki [nM] |
| --- | --- |
| C[C@@H](OCc1ccccc1)[C@@H](C#N)NC(=O)[C@H](Cc1cccc(Cl)c1)NS(=O)(=O)c1cccc(Br)c1 | 39.8 |
| C[C@@H](OCc1ccccc1)[C@@H](C#N)NC(=O)[C@H](Cc1c[nH]c2ccccc12)NC(=O)c1ccc(-c2ccccc2)cc1 | 50.1 |
| C[C@@H](OCc1ccccc1)[C@@H](C#N)NC(=O)[C@H](Cc1cccc(Cl)c1)NC(=O)c1cccc(-c2cccnc2)c1 | 5.01 |
| C[C@@H](OCc1ccccc1)[C@@H](C#N)NC(=O)[C@H](Cc1cccc(Br)c1)NC(=O)c1ccc(-c2ccccc2)cc1 | 50.1 |
| C[C@@H](OCc1ccccc1)[C@@H](C#N)NC(=O)[C@H](Cc1cccc(Br)c1)NC(=O)c1ccc(-c2cccnc2)cc1 | 12.6 |
| C[C@@H](OCc1ccccc1)[C@@H](C#N)NC(=O)[C@H](Cc1ccc(Br)cc1)NC(=O)c1ccc(-c2ccccc2)cc1 | 158 |
| C[C@@H](OCc1ccccc1)[C@@H](C#N)NC(=O)[C@H](Cc1cccc(Cl)c1)NC(=O)c1cccc(-c2cncnc2)c1 | 63.1 |
| C[C@@H](OCc1ccccc1)[C@@H](C#N)NC(=O)[C@H](Cc1cccc(Br)c1)NC(=O)c1cc(C(C)(C)C)nn1C | 158 |
| C[C@@H](OCc1ccccc1)[C@@H](C#N)NC(=O)[C@H](Cc1cccc(Br)c1)NC(=O)c1cccc(-c2cccnc2)c1 | 31.6 |

Target: T2, Cathepsin K (Homo sapiens, UniProt P43235)
T2 sequence (P43235 whole entry): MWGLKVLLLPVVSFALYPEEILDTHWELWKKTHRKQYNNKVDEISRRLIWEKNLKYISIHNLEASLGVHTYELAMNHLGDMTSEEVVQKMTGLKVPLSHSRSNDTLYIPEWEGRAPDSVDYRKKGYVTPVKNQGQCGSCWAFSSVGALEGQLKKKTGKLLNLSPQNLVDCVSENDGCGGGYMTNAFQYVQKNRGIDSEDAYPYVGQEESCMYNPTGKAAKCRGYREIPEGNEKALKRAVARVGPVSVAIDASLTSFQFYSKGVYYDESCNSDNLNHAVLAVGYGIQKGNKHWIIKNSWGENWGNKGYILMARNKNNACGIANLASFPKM
Assay: Inhibition of recombinant human cathepsin K using Z-Leu-Arg-AMC as substrate measured after 20 mins
Conditions: not given

| Compound | Ki [µM] |
| --- | --- |
| C[C@@H](OCc1ccccc1)[C@@H](C#N)NC(=O)[C@H](Cc1cccc(Cl)c1)NS(=O)(=O)c1cccc(Br)c1 | 0.631 |
| C[C@@H](OCc1ccccc1)[C@@H](C#N)NC(=O)[C@H](Cc1c[nH]c2ccccc12)NC(=O)c1ccc(-c2ccccc2)cc1 | > 10 |
| C[C@@H](OCc1ccccc1)[C@@H](C#N)NC(=O)[C@H](Cc1cccc(Cl)c1)NC(=O)c1cccc(-c2cccnc2)c1 | > 10 |
| C[C@@H](OCc1ccccc1)[C@@H](C#N)NC(=O)[C@H](Cc1cccc(Br)c1)NC(=O)c1ccc(-c2ccccc2)cc1 | > 10 |
| C[C@@H](OCc1ccccc1)[C@@H](C#N)NC(=O)[C@H](Cc1cccc(Br)c1)NC(=O)c1ccc(-c2cccnc2)cc1 | > 10 |
| C[C@@H](OCc1ccccc1)[C@@H](C#N)NC(=O)[C@H](Cc1ccc(Br)cc1)NC(=O)c1ccc(-c2ccccc2)cc1 | > 10 |
| C[C@@H](OCc1ccccc1)[C@@H](C#N)NC(=O)[C@H](Cc1cccc(Cl)c1)NC(=O)c1cccc(-c2cncnc2)c1 | > 10 |
| C[C@@H](OCc1ccccc1)[C@@H](C#N)NC(=O)[C@H](Cc1cccc(Br)c1)NC(=O)c1cc(C(C)(C)C)nn1C | 2.51 |
| C[C@@H](OCc1ccccc1)[C@@H](C#N)NC(=O)[C@H](Cc1cccc(Br)c1)NC(=O)c1cccc(-c2cccnc2)c1 | > 10 |

Target: T3, Procathepsin L (Homo sapiens, UniProt P07711)
Assay: Inhibition of human cathepsin L
Conditions: not given
Target sequence in this assay (P07711 whole entry): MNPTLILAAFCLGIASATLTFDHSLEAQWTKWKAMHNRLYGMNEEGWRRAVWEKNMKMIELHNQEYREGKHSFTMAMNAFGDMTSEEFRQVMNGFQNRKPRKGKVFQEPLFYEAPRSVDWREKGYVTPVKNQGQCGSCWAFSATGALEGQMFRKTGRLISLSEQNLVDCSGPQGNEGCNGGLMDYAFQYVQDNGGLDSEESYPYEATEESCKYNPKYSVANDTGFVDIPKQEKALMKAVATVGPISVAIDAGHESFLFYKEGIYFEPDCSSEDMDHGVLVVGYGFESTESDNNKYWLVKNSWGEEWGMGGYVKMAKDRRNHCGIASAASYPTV

| Compound | Ki [nM] |
| --- | --- |
| C[C@@H](OCc1ccccc1)[C@@H](C#N)NC(=O)[C@H](Cc1cccc(Cl)c1)NS(=O)(=O)c1cccc(Br)c1 | 0.251 |
| C[C@@H](OCc1ccccc1)[C@@H](C#N)NC(=O)[C@H](Cc1c[nH]c2ccccc12)NC(=O)c1ccc(-c2ccccc2)cc1 | 794 |
| C[C@@H](OCc1ccccc1)[C@@H](C#N)NC(=O)[C@H](Cc1cccc(Cl)c1)NC(=O)c1cccc(-c2cccnc2)c1 | 1 |
| C[C@@H](OCc1ccccc1)[C@@H](C#N)NC(=O)[C@H](Cc1cccc(Br)c1)NC(=O)c1ccc(-c2ccccc2)cc1 | > 10000 |
| C[C@@H](OCc1ccccc1)[C@@H](C#N)NC(=O)[C@H](Cc1cccc(Br)c1)NC(=O)c1ccc(-c2cccnc2)cc1 | 20 |
| C[C@@H](OCc1ccccc1)[C@@H](C#N)NC(=O)[C@H](Cc1ccc(Br)cc1)NC(=O)c1ccc(-c2ccccc2)cc1 | > 10000 |
| C[C@@H](OCc1ccccc1)[C@@H](C#N)NC(=O)[C@H](Cc1cccc(Cl)c1)NC(=O)c1cccc(-c2cncnc2)c1 | 20 |
| C[C@@H](OCc1ccccc1)[C@@H](C#N)NC(=O)[C@H](Cc1cccc(Br)c1)NC(=O)c1cc(C(C)(C)C)nn1C | 0.501 |
| C[C@@H](OCc1ccccc1)[C@@H](C#N)NC(=O)[C@H](Cc1cccc(Br)c1)NC(=O)c1cccc(-c2cccnc2)c1 | 20 |

Target: T4, Cathepsin S (Homo sapiens, UniProt P25774)
Assay: Inhibition of human cathepsin S
Conditions: not given
Target sequence in this assay (P25774 whole entry): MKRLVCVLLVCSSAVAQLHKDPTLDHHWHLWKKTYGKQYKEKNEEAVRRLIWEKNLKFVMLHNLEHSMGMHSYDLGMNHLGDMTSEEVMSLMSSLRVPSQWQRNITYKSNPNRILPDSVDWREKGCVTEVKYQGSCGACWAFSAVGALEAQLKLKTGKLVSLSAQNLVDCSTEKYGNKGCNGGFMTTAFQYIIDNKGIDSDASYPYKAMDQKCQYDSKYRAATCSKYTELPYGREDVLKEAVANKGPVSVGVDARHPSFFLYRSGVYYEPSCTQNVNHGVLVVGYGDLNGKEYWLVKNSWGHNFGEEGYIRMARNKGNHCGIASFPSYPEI

| Compound | Ki [nM] |
| --- | --- |
| C[C@@H](OCc1ccccc1)[C@@H](C#N)NC(=O)[C@H](Cc1cccc(Cl)c1)NS(=O)(=O)c1cccc(Br)c1 | 79.4 |
| C[C@@H](OCc1ccccc1)[C@@H](C#N)NC(=O)[C@H](Cc1c[nH]c2ccccc12)NC(=O)c1ccc(-c2ccccc2)cc1 | 158 |
| C[C@@H](OCc1ccccc1)[C@@H](C#N)NC(=O)[C@H](Cc1cccc(Cl)c1)NC(=O)c1cccc(-c2cccnc2)c1 | 12.6 |
| C[C@@H](OCc1ccccc1)[C@@H](C#N)NC(=O)[C@H](Cc1cccc(Br)c1)NC(=O)c1ccc(-c2ccccc2)cc1 | 501 |
| C[C@@H](OCc1ccccc1)[C@@H](C#N)NC(=O)[C@H](Cc1cccc(Br)c1)NC(=O)c1ccc(-c2cccnc2)cc1 | 39.8 |
| C[C@@H](OCc1ccccc1)[C@@H](C#N)NC(=O)[C@H](Cc1ccc(Br)cc1)NC(=O)c1ccc(-c2ccccc2)cc1 | > 10000 |
| C[C@@H](OCc1ccccc1)[C@@H](C#N)NC(=O)[C@H](Cc1cccc(Cl)c1)NC(=O)c1cccc(-c2cncnc2)c1 | 15.8 |
| C[C@@H](OCc1ccccc1)[C@@H](C#N)NC(=O)[C@H](Cc1cccc(Br)c1)NC(=O)c1cc(C(C)(C)C)nn1C | 158 |
| C[C@@H](OCc1ccccc1)[C@@H](C#N)NC(=O)[C@H](Cc1cccc(Br)c1)NC(=O)c1cccc(-c2cccnc2)c1 | 20 |

Target: T5, Cathepsin K (Homo sapiens) (UniProt P43235)
T5 sequence (whole entry): T2 sequence (P43235 whole entry)
Assay: Inhibition of recombinant human cathepsin K at 10 uM using Z-Leu-Arg-AMC as substrate measured after 20 mins relative to control
Conditions: not given

| Compound | inhibition [%] |
| --- | --- |
| C[C@@H](OCc1ccccc1)[C@@H](C#N)NC(=O)[C@H](Cc1c[nH]c2ccccc12)NC(=O)c1ccc(-c2ccccc2)cc1 | 70 |
| C[C@@H](OCc1ccccc1)[C@@H](C#N)NC(=O)[C@H](Cc1cccc(Br)c1)NC(=O)c1ccc(-c2ccccc2)cc1 | > 90 |
| C[C@@H](OCc1ccccc1)[C@@H](C#N)NC(=O)[C@H](Cc1cccc(Br)c1)NC(=O)c1ccc(-c2cccnc2)cc1 | 84 |
| C[C@@H](OCc1ccccc1)[C@@H](C#N)NC(=O)[C@H](Cc1ccc(Br)cc1)NC(=O)c1ccc(-c2ccccc2)cc1 | 51 |
| C[C@@H](OCc1ccccc1)[C@@H](C#N)NC(=O)[C@H](Cc1cccc(Cl)c1)NC(=O)c1cccc(-c2cncnc2)c1 | 82 |

Target: T3, Procathepsin L
Assay: Inhibition of human cathepsin L at 10 uM relative to control
Conditions: not given
Target sequence in this assay (P07711 114-333 limits assumed): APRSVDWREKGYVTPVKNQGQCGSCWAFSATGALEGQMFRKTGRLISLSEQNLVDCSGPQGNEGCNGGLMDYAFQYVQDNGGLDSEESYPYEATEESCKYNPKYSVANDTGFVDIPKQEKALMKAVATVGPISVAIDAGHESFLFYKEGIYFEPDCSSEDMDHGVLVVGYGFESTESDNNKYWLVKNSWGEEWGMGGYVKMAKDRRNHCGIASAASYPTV

| Compound | inhibition [%] |
| --- | --- |
| C[C@@H](OCc1ccccc1)[C@@H](C#N)NC(=O)[C@H](Cc1cccc(Br)c1)NC(=O)c1ccc(-c2ccccc2)cc1 | 55 |
| C[C@@H](OCc1ccccc1)[C@@H](C#N)NC(=O)[C@H](Cc1ccc(Br)cc1)NC(=O)c1ccc(-c2ccccc2)cc1 | > 90 |

Target: T4, Cathepsin S
Assay: Inhibition of human cathepsin S at 10 uM relative to control
Conditions: not given
Target sequence in this assay (P25774 115-331 limits assumed): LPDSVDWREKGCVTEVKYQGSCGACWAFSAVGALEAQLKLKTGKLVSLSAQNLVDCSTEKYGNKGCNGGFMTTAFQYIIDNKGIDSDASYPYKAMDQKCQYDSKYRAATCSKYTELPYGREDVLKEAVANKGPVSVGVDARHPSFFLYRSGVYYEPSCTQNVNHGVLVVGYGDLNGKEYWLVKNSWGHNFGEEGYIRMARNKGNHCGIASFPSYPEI

| Compound | inhibition [%] |
| --- | --- |
| C[C@@H](OCc1ccccc1)[C@@H](C#N)NC(=O)[C@H](Cc1ccc(Br)cc1)NC(=O)c1ccc(-c2ccccc2)cc1 | 86 |

Target: T1, Cathepsin B
Assay: Inhibition of human cathepsin B at pH 6 using Z-Phe-Arg-AMC fluorogenic peptide as substrate preincubated for 2 mins followed by substrate addition and measured for 5 mins by fluorescence assay
Conditions: not given

| Compound | IC50 [nM] |
| --- | --- |
| C[C@@H](OCc1ccccc1)[C@@H](C#N)NC(=O)[C@H](Cc1cccc(Cl)c1)NC(=O)c1cccc(-c2cccnc2)c1 | 9.01 |
| C[C@@H](OCc1ccccc1)[C@@H](C#N)NC(=O)[C@H](Cc1cccc(Br)c1)NC(=O)c1ccc(-c2ccccc2)cc1 | 92.6 |

Target: T1, Cathepsin B
Assay: Inhibition of human cathepsin B at pH 4.5 using Z-Phe-Arg-AMC fluorogenic peptide as substrate preincubated for 2 mins followed by substrate addition and measured for 5 mins by fluorescence assay
Conditions: not given

| Compound | IC50 [nM] |
| --- | --- |
| C[C@@H](OCc1ccccc1)[C@@H](C#N)NC(=O)[C@H](Cc1cccc(Cl)c1)NC(=O)c1cccc(-c2cccnc2)c1 | 33.1 |
| C[C@@H](OCc1ccccc1)[C@@H](C#N)NC(=O)[C@H](Cc1cccc(Br)c1)NC(=O)c1ccc(-c2ccccc2)cc1 | 39.4 |

Species on record: Homo sapiens
Assay: Selectivity index, ratio of pKi for human cathepsin B using Z-Phe-Arg-AMC fluorogenic peptide as substrate preincubated for 2 mins followed by substrate addition and measured for 5 mins by fluorescence assay to pKi for human cathepsin L
Conditions: time 7.0 min

| Compound | Ratio pKi |
| --- | --- |
| C[C@@H](OCc1ccccc1)[C@@H](C#N)NC(=O)[C@H](Cc1c[nH]c2ccccc12)NC(=O)c1ccc(-c2ccccc2)cc1 | 12 |
